The source of these data is patent publication US8865756B2, “Inhibitors of HCV NS5A” (Presidio Pharmaceuticals, Inc., priority 2008, dated 2014).

A value given as a limit tells only on which side of the number the result lay.

The experiment has as its system HCV 1b_Huh-Luc/Neo-ET cell line persistently expressing a bicistronic genotype 1b replicon in Huh 7 cells. The experiment in a line: HCV replicon assay (luciferase readout). Type of experiment: cell-based. Particulars: Hepatitis C virus, Huh-7, 72 h, read-out: Inhibition of HCV genotype 1b. The essentials: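 Huh 7 cells carrying a genotype 1b luciferase/neo replicon treated in triplicate for 72 h, then luciferase activity measured. Signal expressed as % of control; EC50 from four-parameter logistic fit, determined several times.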
A general note: In antiviral work, replicon cells carry a viral genome segment that copies itself.

Take `COC(=O)N[C@@H](C(=O)N1CCC[C@H]1c1ncc(-c2ccc(C#Cc3ccc(-c4cnc([C@@H]5CCCN5C(=O)[C@H](C(C)C)N5CCOC5=O)[nH]4)cc3)cc2)[nH]1)c1ccccc1` [Compound 1005]: the EC50 is less than 1 nM.

In the case of `COC(=O)N[C@H](C(=O)N1CCC[C@H]1c1ncc(-c2ccc(C#Cc3ccc4nc([C@@H]5CCCN5C(=O)[C@@H](NC(=O)OC)[C@@H](C)O)[nH]c4c3)cc2)[nH]1)[C@@H](C)O` [Compound 863], the EC50 was less than 1 nM.

On to `C(#Cc1ccc2nc([C@@H]3CCCN3Cc3ccccc3)[nH]c2c1)c1ccc(-c2cnc([C@@H]3CCCN3Cc3ccccc3)[nH]2)cc1` [Compound 1052], for which the EC50 is greater than 1000 nM.

Consider `COC(=O)N[C@@H](C(=O)N1CCC[C@H]1c1ncc(-c2ccc(C#Cc3ccc(-c4cnc([C@@H]5CCCN5C(=O)[C@H](NS(C)(=O)=O)c5ccccc5)[nH]4)cc3)cc2)[nH]1)c1ccccc1` [Compound 225], for which the EC50 was less than 1 nM.

Regarding `CC[C@@H](C(=O)N1CCC[C@H]1c1ncc(-c2ccc(C#Cc3ccc(-c4cnc([C@@H]5CCCN5C(=O)[C@H](NC(=O)OC)c5ccccc5)[nH]4)cc3)cc2)[nH]1)c1ccccc1` [Compound 258], the EC50 is less than 1 nM.

Turning to `CC(C)(C)OC(=O)N[C@@H](C(=O)N1CCC[C@H]1C(=O)NCc1ccc(C#Cc2ccc(-c3cnc([C@@H]4CCCN4C(=O)[C@H](NC(=O)OC(C)(C)C)c4ccccc4)[nH]3)cc2)cc1)c1ccccc1` [Compound 189], the EC50 is less than 1 nM.

Regarding `COC(=O)N[C@@H](C(=O)N1CCC[C@H]1c1cc(-c2ccc(C#Cc3ccc(-c4cnc([C@@H]5CCCN5C(=O)[C@H](NC(=O)OC)c5ccccc5)[nH]4)cc3)cc2)n[nH]1)c1ccccc1` [Compound 219], the EC50 was less than 1 nM.

As for `O=C(N[C@@H](C(=O)N1CCC[C@H]1C(=O)NCc1ccc(C#Cc2cnc([C@@H]3CCCN3C(=O)[C@H](NC(=O)C3CC3)c3ccccc3)[nH]2)cc1)c1ccccc1)C1CC1` [Compound 121], the EC50 is less than 1 nM.

For the compound `COC(=O)N[C@@H](C(=O)N1CCC[C@H]1c1ncc(C#Cc2ccc(C#Cc3cnc([C@@H]4CCCN4C(=O)[C@@H](c4ccccc4)N4CCCCC4)[nH]3)cc2)[nH]1)c1ccccc1` [Compound 312], the EC50 was less than 1 nM.

For the compound `CCC(CC)[C@H](NC(=O)OC)C(=O)N1CCC[C@H]1c1ncc(-c2ccc(C#Cc3ccc4nc([C@@H]5CCCN5C(=O)[C@@H](NC(=O)OC)C(CC)CC)[nH]c4c3)cc2)[nH]1` [Compound 1030], the EC50 is less than 1 nM.

On to `COC(=O)N[C@H](C(=O)N1CCC[C@H]1c1ncc(-c2ccc(C#Cc3ccc4nc([C@@H]5CCCN5C(=O)[C@@H](NC(=O)OC)C(C)C)[nH]c4c3)cc2)[nH]1)C(C)C` [Compound 802], for which the EC50 was less than 1 nM.

In the case of `COC(=O)N[C@@H](Cc1c[nH]c2ccccc12)C(=O)N1CCC[C@H]1c1ncc(-c2ccc(C#Cc3ccc4nc([C@@H]5CCCN5C(=O)[C@H](Cc5c[nH]c6ccccc56)NC(=O)OC)[nH]c4c3)cc2)[nH]1` [Compound 1057], the EC50 is less than 1 nM.

Regarding `COC(=O)N[C@H](C(=O)N1CCC[C@H]1c1ncc(-c2ccc(C#Cc3ccc(-c4cnc([C@@H]5CCCN5C(=O)[C@@H](NC(=O)OC)C(C)(C)O)[nH]4)cc3)cc2)[nH]1)C(C)(C)O` [Compound 993], the EC50 was less than 1 nM.

As for `COC[C@H](NC(=O)OC)C(=O)N1CCC[C@H]1c1ncc(-c2ccc(C#Cc3ccc4nc([C@@H]5CCCN5C(=O)[C@H](COC)NC(=O)OC)[nH]c4c3)cc2)[nH]1` [Compound 1037], the EC50 is less than 1 nM.

Turning to `CC[C@@H](C)[C@H](NC(=O)OC)C(=O)N1CCC[C@H]1c1ncc(-c2ccc(C#Cc3ccc4nc([C@@H]5CCCN5C(=O)[C@@H](NC(=O)OC)[C@H](C)CC)[nH]c4c3)cc2)[nH]1` [Compound 1024], the EC50 was less than 1 nM.

In the case of `COC(=O)N[C@H](C(=O)N1CCC[C@H]1c1ncc(-c2ccc(C#Cc3ccc(-c4cnc([C@@H]5CCCN5C(=O)[C@@H](NC(=O)OC)C(C)C)[nH]4)cc3)cc2)[nH]1)C(C)C` [Compound 266], the EC50 is less than 1 nM.

Take `COC(=O)N[C@H](C(=O)N1CCC[C@H]1c1ncc(-c2ccc(C#Cc3ccc4nc([C@@H]5CCCN5)[nH]c4c3)cc2)[nH]1)C(C)C` [Compound 1056]: the EC50 lay in the range of 10 to 999 nM.

For `O=C(N[C@@H](C(=O)N1CCC[C@H]1C(=O)NCCc1ccc(C#Cc2cnc([C@@H]3CCCN3C(=O)[C@H](NC(=O)C3CC3)c3ccccc3)[nH]2)cc1)c1ccccc1)C1CC1` [Compound 125], the EC50 was less than 1 nM.

As for `COC(=O)N[C@@H](C(=O)N1CCC[C@H]1c1ncc(-c2ccc(C#Cc3ccc(-c4cnc([C@@H]5CCCN5C(=O)[C@H](NC(=O)[C@H]5CCCN5)c5ccccc5)[nH]4)cc3)cc2)[nH]1)c1ccccc1` [Compound 207], the EC50 is less than 1 nM.

Turning to `COC[C@H](NC(=O)OC)C(=O)N1CCC[C@H]1c1ncc(-c2ccc(C#Cc3ccc(-c4cnc([C@@H]5CCCN5C(=O)[C@H](COC)NC(=O)OC)[nH]4)cc3)cc2)[nH]1` [Compound 976], the EC50 was less than 1 nM.

Take `COC(=O)N[C@@H](CCC(=O)O)C(=O)N1CCC[C@H]1c1ncc(-c2ccc(C#Cc3ccc4nc([C@@H]5CCCN5C(=O)[C@H](CCC(=O)O)NC(=O)OC)[nH]c4c3)cc2)[nH]1` [Compound 1047]: the EC50 lay in the range of 10 to 999 nM.

In the case of `O=C(N[C@@H](C(=O)N1CCC[C@H]1c1ncc(C#Cc2ccc(-c3ccc(-c4cnc([C@@H]5CCCN5C(=O)[C@H](NC(=O)N5CC[C@@H](O)C5)c5ccccc5)[nH]4)cc3)cc2)[nH]1)c1ccccc1)N1CC[C@@H](O)C1` [Compound 763], the EC50 was less than 1 nM.

On to `O=C(Cc1cccnc1)N[C@@H](C(=O)N1CCC[C@H]1c1cc(-c2ccc(C#Cc3ccc(-c4cnc([C@@H]5CCCN5C(=O)[C@H](NC(=O)Cc5cccnc5)c5ccccc5)[nH]4)cc3)cc2)n[nH]1)c1ccccc1` [Compound 222], for which the EC50 is less than 1 nM.

As to `CS(=O)(=O)N[C@@H](C(=O)N1CCC[C@H]1c1ncc(-c2ccc(C#Cc3ccc(-c4cnc([C@@H]5CCCN5C(=O)[C@@H](c5ccccc5)N5CCCC5)[nH]4)cc3)cc2)[nH]1)c1ccccc1` [Compound 230], the EC50 was less than 1 nM.

Turning to `CC(C)[C@@H](NC(=O)OC(C)(C)C)C(=O)N1CCC[C@H]1C(=O)Nc1ccc(C#Cc2cnc([C@@H]3CCCN3C(=O)[C@H](NC(=O)OC(C)(C)C)C(C)C)[nH]2)cc1` [Compound 114], the EC50 lay within 10 to 999 nM.

Turning to `COC(=O)N[C@H](C(=O)N1CCC[C@H]1c1ncc(-c2ccc(C#Cc3ccc(-c4cnc([C@@H]5CCCN5C(=O)[C@H](NC(=O)N5CC[C@H](O)C5)c5ccccc5)[nH]4)cc3)cc2)[nH]1)C(C)C` [Compound 974], the EC50 is less than 1 nM.

Consider `COC(=O)N[C@@H](C(=O)N1CCC[C@H]1c1ncc(C#Cc2ccc3nc([C@@H]4CCCN4C(=O)[C@H](NC(=O)OC)c4ccccc4)[nH]c3c2)[nH]1)c1ccccc1` [Compound 700], for which the EC50 is less than 1 nM.

Take `COC(=O)N[C@H](C(=O)N1CCC[C@H]1c1ncc(-c2ccc(C#Cc3ccc(-c4cnc([C@@H]5CCCN5C(=O)[C@@H](NC(=O)OC)[C@@H](C)OC)[nH]4)cc3)cc2)[nH]1)[C@@H](C)OC` [Compound 284]: the EC50 was less than 1 nM.

On to `COC(=O)N[C@H](C(=O)N1CCCC[C@H]1c1ncc(-c2ccc(C#Cc3ccc4nc([C@@H]5CCCN5C(=O)[C@@H](NC(=O)OC)C(C)C)[nH]c4c3)cc2)[nH]1)C(C)C` [Compound 1032], for which the EC50 was less than 1 nM.

As for `CC(C)[C@H](NC(=O)OC(C)(C)C)C(=O)N1CCC[C@H]1c1ncc(-c2ccc(C#Cc3ccc(-c4cnc([C@@H]5CCCN5C(=O)[C@@H](NC(=O)OC(C)(C)C)C(C)C)[nH]4)cc3)cc2)[nH]1` [Compound 165], the EC50 is 10 to 999 nM.

On to `COC(=O)N[C@@H](C(=O)N1CCC[C@H]1c1ncc(-c2ccc(C#Cc3ccc(-c4cnc([C@@H]5CCCN5C(=O)C5CCCN5C)[nH]4)cc3)cc2)[nH]1)c1ccccc1` (stereo partly shown) [Compound 202], for which the EC50 was less than 1 nM.

`CC(C)[C@H](NC(=O)C1CC1)C(=O)N1CCC[C@H]1c1ncc(-c2ccc(C#Cc3ccc(-c4cnc([C@@H]5CCCN5C(=O)[C@@H](NC(=O)C5CC5)C(C)C)[nH]4)cc3)cc2)[nH]1` [Compound 170]: the EC50 fell in the range of 1 to 9.9 nM.

For `COC(=O)N[C@@H](C(=O)N1CCC[C@H]1c1ncc(-c2ccc(C#Cc3ccc(-c4cnc([C@@H]5CCCN5C(=O)[C@H](NC(=O)N5CC[C@H](F)C5)c5ccccc5)[nH]4)cc3)cc2)[nH]1)c1ccccc1` [Compound 270], the EC50 was less than 1 nM.

As to `O=C(NC[C@@H]1CCCN1C(=O)[C@H](NC(=O)C1CC1)c1ccccc1)c1ccc(C#Cc2ccc(-c3cnc([C@@H]4CCCN4C(=O)[C@H](NC(=O)C4CC4)c4ccccc4)[nH]3)cc2)cc1` [Compound 193], the EC50 is less than 1 nM.

As for `COC(=O)N[C@@H](C(=O)N1CCC[C@H]1c1ncc(-c2ccc(C#Cc3ccc(-c4cnc([C@@H]5CCCN5C(=O)[C@@H](c5ccccc5)N5CCOCC5)[nH]4)cc3)cc2)[nH]1)c1ccccc1` [Compound 185], the EC50 is less than 1 nM.

For the compound `CC1(O)CCN(C(=O)N[C@@H](C(=O)N2CCC[C@H]2c2ncc(C#Cc3ccc(-c4ccc(-c5cnc([C@@H]6CCCN6C(=O)[C@H](NC(=O)N6CCC(C)(O)CC6)c6ccccc6)[nH]5)cc4)cc3)[nH]2)c2ccccc2)CC1` [Compound 870], the EC50 was less than 1 nM.

Take `COC(=O)N[C@H]1CCC[C@@H]1C(=O)N1CCC[C@H]1c1ncc(-c2ccc(C#Cc3ccc4nc([C@@H]5CCCN5C(=O)[C@H]5CCC[C@@H]5NC(=O)OC)[nH]c4c3)cc2)[nH]1` [Compound 1059]: the EC50 is 10 to 999 nM.

Regarding `COC(=O)N[C@@H](C(=O)N1CCC[C@H]1c1ncc(-c2ccc(C#Cc3ccc(-c4cnc([C@@H]5CCCN5C(=O)[C@H](NC(=O)N5CCC[C@H](O)C5)c5ccccc5)[nH]4)cc3)cc2)[nH]1)c1ccccc1` [Compound 263], the EC50 was less than 1 nM.

With `C[C@@H]1OC(=O)N[C@H]1C(=O)N1CCC[C@H]1c1ncc(-c2ccc(C#Cc3ccc(-c4cnc([C@@H]5CCCN5C(=O)[C@@H]5NC(=O)O[C@H]5C)[nH]4)cc3)cc2)[nH]1` [Compound 1000], the EC50 was 10 to 999 nM.

`CO[C@@H](C(=O)N1CCC[C@H]1c1ncc(-c2ccc(C#Cc3ccc(-c4cnc([C@@H]5CCCN5C(=O)[C@H](OC)c5ccccc5)[nH]4)cc3)cc2)[nH]1)c1ccccc1` [Compound 172]: the EC50 is less than 1 nM.
